From patent US7786299B2, “Methods for treating diseases or conditions using dihydropteridinone compounds” (Boehringer Ingelheim Pharma GmbH & Co. KG, priority 2003, dated 2010) come the findings set out here.

For one experiment, the system named is HeLaS3 cells. In words: Measurement of cytotoxicity on cultivated human tumour cells (AlamarBlue). Format: cell-based. Particulars: HeLa in Table 1; unit inferred. The method, then:
The activity of the compounds according to the invention was determined in the cytotoxicity test on cultivated human tumour cells and/or in a FACS analysis, for example on HeLaS3 cells.
Measurement of Cytotoxicity on Cultivated Human Tumour Cells
To measure the cytotoxicity on cultivated human tumour cells, cells of the cervical cancer tumour cell line HeLaS3 (obtained from American Type Culture Collection (ATCC)) in Ham's F12 Medium (Life Technologies) and 10% foetal calf serum (Life Technologies) were cultivated and harvested in the logarithmic growth phase. Then the HeLaS3 cells were placed in 96-well plates (Costar) at a density of 1000 cells per well and incubated overnight in an incubator (at 37° C. and 5% CO2), while on each plate 6 wells were filled only with medium (3 wells as a control of the medium, 3 wells for incubation with reduced AlamarBlue). The active substances were added to the cells in various concentrations (dissolved in DMSO; final concentration: 1%) (in each case as a triple measurement). After 72 hours' incubation, 20 μl of AlamarBlue (AccuMed International) were added to each well, and the cells were incubated for a further 7 hours. As a control, 20 μl of reduced Alamar Blue (AlamarBlue reagent which had been autoclaved for 30 min) were added to 3 wells. After 7 h incubation the colour change of the AlamarBlue reagent in the individual wells was determined in a Perkin Elmer fluorescence spectrophotometer (excitation 530 nm, emission 590 nm, slits 15, integrate time 0.1). The amount of AlamarBlue reagent reacted represents the metabolic activity of the cells. The relative cell activity was calculated as a percentage of the control (HeLa S3 cells without inhibitor) and the active substance concentration which inhibits the cell activity by 50% (IC^50) was obtained. The values were calculated from the average of three individual measurements, correcting for the control value (medium control).
For orientation: Alamar Blue is a resazurin reagent that responds to reducing activity.

For the next experiment, the system named is H460-VINC. Put plainly: Cytotoxicity on H460-VINC cells (Table 1; method not given). To be noted: H460-VINC of Table 1; unit inferred. The class given is cell-based.

As a reminder, the IC50 is the point on the concentration scale where inhibition reaches its midpoint. Lower therefore signals inhibition by little substance. `CCC1C(=O)N(C)c2cnc(Nc3ccc(C(=O)NC4CCC(N(C)C)CC4)cc3OC)nc2N1C1CCCC1` (stereo not drawn) [Example 23]: the IC50 in the experiment on HeLaS3 cells is 13 nM; with H460-VINC it was 679 nM.
The corresponding values for `COc1cc(C(=O)NC2CCN(C(C)C)CC2)ccc1Nc1ncc2c(n1)N(CCC(C)C)C(C)C(=O)N2C` (stereo not drawn) [Example 2] are 56 nM and 971 nM.
On the same counts, the results for `CCC1C(=O)N(C)c2cnc(Nc3ccc(C(=O)NC4CCC(N5CCCC5)CC4)cc3OC)nc2N1C1CCCC1` (stereo not drawn) [Example 138] are 43 nM and 1140 nM.
The corresponding values for `Cc1cc(C(=O)NC2CCN(C)CC2)ccc1Nc1ncc2c(n1)N(C1CCCC1)[C@H](C)C(=O)N2C` [Example 83] are 69 nM and 263 nM.
Turning to `CCN1CCC(NC(=O)c2ccc(Nc3ncc4c(n3)N(CC(C)(C)C)C(C)C(=O)N4C)c(OC)c2)CC1` (stereo not drawn) [Example 6], the figures for the IC50 with HeLaS3 cells and in the experiment with H460-VINC were 53 nM and 822 nM, respectively.
The corresponding values for `CC1C(=O)N(C)c2cnc(Nc3ccc(C(=O)NC4CCN(C)CC4)cc3)nc2N1c1ccccc1` (stereo not drawn) [Example 48] are 83 nM and ≥ 3000 nM.
On the same counts, the results for `CC[C@@H]1C(=O)N(C)c2cnc(Nc3ccc(C(=O)NCCN4CCOCC4)cc3OC)nc2N1CCC(C)C` [Example 156] are 48 nM and 481 nM.
On to `CCC1C(=O)N(C)c2cnc(Nc3ccc(C(=O)NC4CCC(N5CCCC5)CC4)cc3OC)nc2N1C(C)C` (stereo not drawn) [Example 135], for which the values for the IC50 in the experiment on HeLaS3 cells and in the experiment on H460-VINC were 12 nM and 699 nM, respectively.
On the same counts, the results for `COc1cc(C(=O)NC2CC(C)(C)N(C)C(C)(C)C2)ccc1Nc1ncc2c(n1)N(C(C)C)[C@H](C)C(=O)N2C` [Example 32] are 49 nM and ≥ 3000 nM.
On to `CC[C@@H]1C(=O)N(C)c2cnc(Nc3ccc(C(=O)NCCCCN(CC)CC)cc3OC)nc2N1CCC(C)C` [Example 153], for which the IC50 in the experiment on HeLaS3 cells was 72 nM; in the experiment with H460-VINC, 2640 nM.
Regarding `COc1cc(C(=O)NC2CC(C)(C)N(C)C(C)(C)C2)ccc1Nc1ncc2c(n1)N(CC(C)(C)C)C(C)C(=O)N2C` (stereo not drawn) [Example 5], the 50% inhibitory concentration (IC50) in the experiment with HeLaS3 cells was determined as 52 nM; in the experiment with H460-VINC, 863 nM.
On the same counts, the results for `CCC1C(=O)N(C)c2cnc(Nc3ccc(C(=O)NC4CCC(N5CCOCC5)CC4)cc3OC)nc2N1C1CCCC1` (stereo not drawn) [Example 133] are 11 nM and 75 nM.
On the same counts, the results for `CC[C@@H]1C(=O)N(C)c2cnc(Nc3ccc(C(=O)NC4CCN(C)CC4)cc3OC)nc2N1CCC(C)C` [Example 171] are 31 nM and 790 nM.
The corresponding values for `CCN1CCC(NC(=O)c2ccc(Nc3ncc4c(n3)N(C(C)C)C(C)C(=O)N4C)c(OC)c2)CC1` (stereo not drawn) [Example 20] are 83 nM and ≥ 3000 nM.
Regarding `CC[C@@H]1C(=O)N(C)c2cnc(Nc3ccc(C(=O)NCC(C)(C)CN(C)C)cc3OC)nc2N1c1ccccc1` [Example 89], the IC50 with HeLaS3 cells is 47 nM; in the experiment with H460-VINC it was 245 nM.
On the same counts, the results for `CCN1CCC(NC(=O)c2ccc(Nc3ncc4c(n3)N(CC(C)(C)C)C(C)C(=O)N4C)cc2)CC1` (stereo not drawn) [Example 11] are 86 nM and 1300 nM.
The corresponding values for `CCC1C(=O)N(C)c2cnc(Nc3ccc(C(=O)NC4CCC(N5CCN(C)CC5)CC4)cc3OC)nc2N1C(C)C` (stereo not drawn) [Example 113] are 37 nM and 687 nM.
As to `CCC1C(=O)N(C)c2cnc(Nc3ccc(C(=O)NC4CC(C)(C)N(C)C(C)(C)C4)cc3OC)nc2N1C1CCCC1` (stereo not drawn) [Example 21], the IC50 in the experiment on HeLaS3 cells came out at 9 nM; with H460-VINC it was 488 nM.
On the same counts, the results for `CC[C@@H]1C(=O)N(C)c2cnc(Nc3ccc(C(=O)NCCN4CCCC4)cc3OC)nc2N1CCC(C)C` [Example 170] are 45 nM and 427 nM.
On the same counts, the results for `CCC1C(=O)N(C)c2cnc(Nc3ccc(C(=O)NC(C)(C)CN4CCCC4)cc3OC)nc2N1C(C)C` (stereo not drawn) [Example 54] are 31 nM and 226 nM.
The corresponding values for `COc1cc(C(=O)NC2CC(C)(C)N(C)C(C)(C)C2)ccc1Nc1ncc2c(n1)N(C1CCCCC1)C(C)C(=O)N2C` (stereo not drawn) [Example 117] are 10 nM and 370 nM.
For the molecule `CC[C@@H]1C(=O)N(C)c2cnc(Nc3ccc(C(=O)N[C@H]4CC[C@H](N5CCOCC5)CC4)cc3OC)nc2N1C1CCCCC1` [Example 97], the figures for the IC50 in the experiment on HeLaS3 cells and in the experiment with H460-VINC were 32 nM and 66 nM, respectively.
The corresponding values for `COc1cc(C(=O)NC2CCN(C(C)C)CC2)ccc1Nc1ncc2c(n1)N(CC(C)(C)C)C(C)C(=O)N2C` (stereo not drawn) [Example 7] are 84 nM and 865 nM.
The corresponding values for `COc1cc(C(=O)NC2CCC(N3CCOCC3)CC2)ccc1Nc1ncc2c(n1)N(C1CCCCC1)C(C)C(=O)N2C` (stereo not drawn) [Example 130] are 15 nM and 91 nM.
The corresponding values for `CCC1C(=O)N(C)c2cnc(Nc3ccc(C(=O)NCC(C)(C)CN(C)C)cc3OC)nc2N1C1CCCC1` (stereo not drawn) [Example 58] are 10 nM and 23 nM.
Regarding `COc1cc(C(=O)NC2CCC(N(C)C)CC2)ccc1Nc1ncc2c(n1)N(C1CCCCC1)C(C)C(=O)N2C` (stereo not drawn) [Example 118], the IC50 in the experiment with HeLaS3 cells came to 10 nM; in the experiment on H460-VINC, 279 nM.
For `CCN1CCC(NC(=O)c2ccc(Nc3ncc4c(n3)N(C3CCCCC3)C(C)C(=O)N4C)c(OC)c2)CC1` (stereo not drawn) [Example 119], the IC50 in the experiment with HeLaS3 cells stood at 8 nM; with H460-VINC, 438 nM.
On the same counts, the results for `COc1cc(C(=O)NC2CCC(N3CCOCC3)CC2)ccc1Nc1ncc2c(n1)N(C1CCCCC1)C(C)C(=O)N2C` (stereo not drawn) [Example 137] are 39 nM and 148 nM.
On the same counts, the results for `COc1cc(C(=O)NC2CCN(C)CC2)ccc1Nc1ncc2c(n1)N(CCC(C)C)C(C)(C)C(=O)N2C` [Example 162] are 71 nM and 903 nM.
The corresponding values for `CCC1C(=O)N(C)c2cnc(Nc3ccc(C(=O)NC4CCN(C5CCOCC5)CC4)cc3OC)nc2N1C1CCCC1` (stereo not drawn) [Example 116] are 6 nM and 174 nM.
`CC1C(=O)N(C)c2cnc(Nc3ccc(C(=O)NC4CCC(N(C)C)CC4)cc3)nc2N1C1CCCC1` (stereo not drawn) [Example 14]: the IC50 with HeLaS3 cells is 55 nM; with H460-VINC it was ≥ 3000 nM.
On the same counts, the results for `COc1cc(C(=O)NCCN(C)C)ccc1Nc1ncc2c(n1)N(C1CCCC1)C(C)C(=O)N2C` (stereo not drawn) [Example 67] are 52 nM and 566 nM.
The corresponding values for `COc1cc(C(=O)NCC(C)(C)CN(C)C)ccc1Nc1ncc2c(n1)N(CCC(C)C)C(C)(C)C(=O)N2C` [Example 53] are 76 nM and 245 nM.
On the same counts, the results for `COc1cc(C(=O)NC2CCC(N(C)C)CC2)ccc1Nc1ncc2c(n1)N(CCC(C)C)C(C)C(=O)N2C` (stereo not drawn) [Example 114] are 64 nM and 766 nM.
Regarding `CCC1C(=O)N(C)c2cnc(Nc3ccc(C(=O)NC4CCN(CC)CC4)cc3OC)nc2N1C1CCCC1` (stereo not drawn) [Example 22], the IC50 in the experiment with HeLaS3 cells is 8 nM; with H460-VINC, 347 nM.
With `COc1cc(C(=O)NC2CCN(C)CC2)ccc1Nc1ncc2c(n1)N(CC(C)C)C(C)(C)C(=O)N2C` [Example 61], the IC50 in the experiment with HeLaS3 cells is 65 nM; with H460-VINC, 1040 nM.
`COc1cc(C(=O)NC2CC3CCC(C2)N3C)ccc1Nc1ncc2c(n1)N(CCC(C)C)C(C)(C)C(=O)N2C` (stereo not drawn) [Example 43]: the IC50 with HeLaS3 cells was 94 nM; with H460-VINC it was ≥ 3000 nM.
`COc1cc(C(=O)NC(C)(C)CN2CCCC2)ccc1Nc1ncc2c(n1)N(C(C)C)C(C)C(=O)N2C` (stereo not drawn) [Example 56]: the figures for the IC50 with HeLaS3 cells and in the experiment on H460-VINC were 64 nM and 324 nM, respectively.
The corresponding values for `COc1cc(C(=O)NCC(C)(C)CN(C)C)ccc1Nc1ncc2c(n1)N(C1CCCC1)C(C1CC1)C(=O)N2C` (stereo not drawn) [Example 51] are 80 nM and 150 nM.
On the same counts, the results for `CC[C@@H]1C(=O)N(C)c2cnc(Nc3ccc(C(=O)NCCCN(CC)CC)cc3OC)nc2N1CCC(C)C` [Example 165] are 46 nM and 668 nM.
As for `COc1cc(C(=O)NC2CCC(N3CCOCC3)CC2)ccc1Nc1ncc2c(n1)N(C1CCCC1)C(C)C(=O)N2C` (stereo not drawn) [Example 24], the IC50 in the experiment with HeLaS3 cells came to 17 nM; in the experiment on H460-VINC, 277 nM.
On the same counts, the results for `C[C@@H]1C(=O)N(C)c2cnc(Nc3ccc(C(=O)NC4CC(C)(C)N(C)C(C)(C)C4)cc3)nc2N1C1CCCC1` [Example 31] are 23 nM and ≥ 3000 nM.
For the molecule `COc1cc(C(=O)NC2CCN(C3CCOCC3)CC2)ccc1Nc1ncc2c(n1)N(C1CCCCC1)C(C)C(=O)N2C` (stereo not drawn) [Example 120], the IC50 in the experiment on HeLaS3 cells is 14 nM; in the experiment on H460-VINC it was 374 nM.
On the same counts, the results for `COc1cc(C(=O)NCCCN2CCCCC2)ccc1Nc1ncc2c(n1)N(C1CCCC1)C(C)C(=O)N2C` (stereo not drawn) [Example 64] are 64 nM and 894 nM.
The corresponding values for `COc1cc(C(=O)NCC(C)(C)CN(C)C)ccc1Nc1ncc2c(n1)N(CC(C)(C)C)C(C)C(=O)N2C` (stereo not drawn) [Example 52] are 79 nM and 153 nM.
